Legend:
A549 = experiment: Cytotoxicity against human A549 cells by MTT assay; assay type: functional, cell-based
HCT-8 = experiment: Cytotoxicity against human HCT8 cells by MTT assay; assay type: functional, cell-based
Bel-7402 = experiment: Cytotoxicity against human Bel7402 cells by MTT assay; assay type: functional, cell-based
Escherichia coli = experiment: Antibacterial activity against Escherichia coli; assay type: functional
Candida albicans = experiment: Antifungal activity against Candida albicans after 24 hrs; assay type: functional
MCF7 = experiment: Cytotoxicity against human MCF7 cells by MTT assay; assay type: functional, cell-based
Staphylococcus aureus = experiment: Antibacterial activity against Staphylococcus aureus; assay type: functional
BGC-823 = experiment: Cytotoxicity against human BGC823 cells by MTT assay; assay type: functional, cell-based

MIC50 (Escherichia coli) [µg/mL] | MIC50 (Candida albicans) [µg/mL] | MIC50 (Staphylococcus aureus) [µg/mL] | Compound | IC50 (A549) [µg/mL] | IC50 (HCT-8) [µg/mL] | IC50 (Bel-7402) [µg/mL] | IC50 (MCF7) [µg/mL] | IC50 (BGC-823) [µg/mL]
> 100 | > 100 | > 100 | COC(=O)C1CCC(=O)N1Cc1cc(O)c(O)c(Br)c1Cc1cc(O)c(O)c(Br)c1Br (configuration not stated) | > 10 | > 10 | > 10 | > 10 | > 10
> 100 | > 100 | > 100 | COC(=O)C1CCC(=O)N1Cc1cc(O)c(O)c(Br)c1Br (configuration not stated) | > 10 | > 10 | > 10 | > 10 | > 10
> 100 | > 100 | > 100 | OC[C@H]1O[C@@H](n2cnc3cnc(NCc4cc(O)c(O)c(Br)c4Br)nc32)[C@H](O)[C@@H]1O | > 10 | > 10 | > 10 | > 10 | > 10
> 100 | > 100 | > 100 | O=C(O)C1CCC(=O)N1Cc1cc(O)c(O)c(Br)c1Br (configuration not stated) | > 10 | > 10 | > 10 | > 10 | > 10

Reference: ChEMBL document CHEMBL1158755, “Bromophenols coupled with derivatives of amino acids and nucleosides from the red alga Rhodomela confervoides” (J Nat Prod, 2005)
